From US11911521B2, “Antibacterial nanofiber” (UNIVERSITY OF MANITOBA, priority 2017, dated 2024)

Key:
Type in all cases: cell-based
[1] = tested on: Escherichia coli (E-coli—ATCC 25922); assay: Antibacterial test by colony counting method, E. coli; details: for logarithm reduction of bacteria / percentage reduction of bacteria: E. coli ~8 Log CFU/mL
Description: (§1) The antibacterial activity of the nanofiber mats was tested by colony counting method against Staphylococcus aureus (S. aureus) and E. coli, which are commonly found on burn wounds. For the antibacterial studies, logarithmic-phase cultures were prepared by initially suspending several colonies in phosphate buffered saline (PBS, 0.1 M, pH 7.4) at a density equivalent to a 0.5 McFarland standard of 1×10^8 colony forming units (CFU) mL^−1 and then diluted 100 times to 1×10^6 CFU mL^−1. 15 μL of the diluted E-coli and S. aureus suspension was further diluted into 45 mL cation-supplemented MuellerHinton (MH) broth and TSB, respectively. After culturing in the incubator at 37° C. for overnight, the concentration of bacteria went up to 10^8 CFU mL^−1. 2 mL of bacteria suspension was added to 4 mg of nanofibers and incubated. At the predetermined contact times, 150 μL of bacteria culture was taken from the flask, neutralized, and decimal serial dilutions with PBS were repeated with each initial sample. 30 μL of the diluted sample was then spread onto four zones of a Tryptone Soya agar plate (CM 0131, OXOID). After incubation of the plates at 37° C. for 18 h, the number of viable bacteria (colonies) was counted manually for control (A, bacteria suspension without sample) and BTAC-loaded nanofibers (B). Bacteria reduction was reported as percentage and Log 10. The percentage reduction of bacteria (%)=(A−B)/A×100; and logarithm reduction=log(A/B).

[2] = tested on: ATCC-PCS-201 neonatal human dermal fibroblast; assay: In vitro cytotoxicity assay (MTT) on fibroblast cells; details: after 24 h of contact, free BTAC at 34 mg/L
Description: An in vitro cytotoxicity assay was conducted on fibroblast cells (ATCC-PCS-201 neonatal human dermal fibroblast) to evaluate the effect of drug-loaded nanofibers. Nanofibers were cut in to the same shape and weighted to 4 mg (triplicate). They were pre-soaked in 1 mL of ethanol for 10 min. Samples were exposed to UV light for 45 min (each side). Fibroblast cells were cultured in 24 well-plates at density of 1×10^5 (cell/mL). After reaching to 90% confluence, 2 mL of fibroblast culture medium was added to each of the wells and the dressings. Afterwards, the cells were incubated at 37° C. for 24 h. Cell viability was determined using MTT assay after removal of dressings. Each well received 500 μL of 1:10 (v/v) MTT and fibroblast medium solution. Subsequently, after 2 h incubation at 37° C., the culture medium with the MTT solution were aspirated and replaced by 500 μL DMSO. Finally, 100 μL aliquots from each well (in triplicate) were transferred to 96-well plates and viability of cells was evaluated using spectrophotometer at 570 nm wavelength (PowerWave™ XS2 Microplate Spectrophotometer, BioTek Instruments Inc., Canada).

[3] = tested on: Staphylococcus aureus (S. aureus—ATCC 29213); assay: Antibacterial test by colony counting method, S. aureus; details: for logarithm reduction of bacteria / percentage reduction of bacteria: S. aureus ~8 Log CFU/mL
Description: as §1

Compound: CCCCCCCCCCCCCC[N+](C)(C)Cc1ccccc1 [BTAC, benzyl dimethyl tetradecyl ammonium chloride]
- logarithm reduction of bacteria ([1]; contact time 5 min): 1.3 ± 0.0 Log10
- percentage reduction of bacteria ([1]; contact time 5 min): 95.3 ± 0.3%
- logarithm reduction of bacteria ([1]; contact time 10 min): 1.4 ± 0.1 Log10
- percentage reduction of bacteria ([1]; contact time 10 min): 96.0 ± 0.2%
- logarithm reduction of bacteria ([1]; contact time 20 min): 1.9 ± 0.1 Log10
- percentage reduction of bacteria ([1]; contact time 20 min): 98.8 ± 0.5%
- logarithm reduction of bacteria ([1]; contact time 30 min): 8.9 Log10
- percentage reduction of bacteria ([1]; contact time 30 min): 100.0%
- time to 100% bacteria inhibition ([1]; against E. coli): < 60 min
- fibroblast cell viability [2]: 55.2±4.0
- logarithm reduction of bacteria ([3]; contact time 5 min): 1.4 ± 0.2 Log10
- percentage reduction of bacteria ([3]; contact time 5 min): 96.1 ± 0.2%
- logarithm reduction of bacteria ([3]; contact time 10 min): 1.8 ± 0.3 Log10
- percentage reduction of bacteria ([3]; contact time 10 min): 98.5 ± 0.9%
- logarithm reduction of bacteria ([3]; contact time 20 min): 8.9 Log10
- percentage reduction of bacteria ([3]; contact time 20 min): 100.0%
- time to 100% bacteria inhibition ([3]; against S. aureus): < 60 min
